Assay results taken from ChEMBL document CHEMBL4837249, “Discovery of Potent Antiallergic Agents Based on an o-Aminopyridinyl Alkynyl Scaffold” (J Med Chem, 2021).

How the values were obtained:
[1] = biological target: Tyrosine-protein kinase Fgr (Homo sapiens, UniProt P09769); assay: Inhibition of human recombinant FGR (456 to 770) at 5 nM by radiometric scintillation counting analysis relative to control
[2] = biological target: T1, Cytoplasmic tyrosine-protein kinase BMX (Homo sapiens) (UniProt P51813); assay: Inhibition of human full length recombinant Bmx at 5 nM by radiometric scintillation counting analysis relative to control
T1 sequence (whole entry): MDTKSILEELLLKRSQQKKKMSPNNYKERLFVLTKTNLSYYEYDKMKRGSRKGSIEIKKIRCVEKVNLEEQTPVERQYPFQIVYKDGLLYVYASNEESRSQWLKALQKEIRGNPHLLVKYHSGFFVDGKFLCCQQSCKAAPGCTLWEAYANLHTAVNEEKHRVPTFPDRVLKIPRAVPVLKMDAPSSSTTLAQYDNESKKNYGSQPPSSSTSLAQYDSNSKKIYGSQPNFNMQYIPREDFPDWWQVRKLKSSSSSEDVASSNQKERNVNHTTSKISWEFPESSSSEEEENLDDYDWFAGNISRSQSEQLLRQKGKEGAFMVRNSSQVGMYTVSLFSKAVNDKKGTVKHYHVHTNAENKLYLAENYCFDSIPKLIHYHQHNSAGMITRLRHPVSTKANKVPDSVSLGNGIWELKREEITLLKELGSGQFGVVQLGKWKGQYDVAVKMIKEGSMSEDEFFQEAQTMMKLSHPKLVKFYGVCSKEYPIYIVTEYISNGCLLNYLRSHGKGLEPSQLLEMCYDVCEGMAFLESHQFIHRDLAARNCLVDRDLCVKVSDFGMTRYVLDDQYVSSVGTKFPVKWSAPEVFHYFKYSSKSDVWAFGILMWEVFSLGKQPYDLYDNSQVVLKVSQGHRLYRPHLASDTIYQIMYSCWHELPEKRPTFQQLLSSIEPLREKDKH

[3] = biological target: Tyrosine-protein kinase Blk (Homo sapiens, UniProt P51451); assay: Inhibition of human full length recombinant BLK at 5 nM by radiometric scintillation counting analysis relative to control
Tyrosine-protein kinase Blk, sequence (P51451 2-505 limits assumed): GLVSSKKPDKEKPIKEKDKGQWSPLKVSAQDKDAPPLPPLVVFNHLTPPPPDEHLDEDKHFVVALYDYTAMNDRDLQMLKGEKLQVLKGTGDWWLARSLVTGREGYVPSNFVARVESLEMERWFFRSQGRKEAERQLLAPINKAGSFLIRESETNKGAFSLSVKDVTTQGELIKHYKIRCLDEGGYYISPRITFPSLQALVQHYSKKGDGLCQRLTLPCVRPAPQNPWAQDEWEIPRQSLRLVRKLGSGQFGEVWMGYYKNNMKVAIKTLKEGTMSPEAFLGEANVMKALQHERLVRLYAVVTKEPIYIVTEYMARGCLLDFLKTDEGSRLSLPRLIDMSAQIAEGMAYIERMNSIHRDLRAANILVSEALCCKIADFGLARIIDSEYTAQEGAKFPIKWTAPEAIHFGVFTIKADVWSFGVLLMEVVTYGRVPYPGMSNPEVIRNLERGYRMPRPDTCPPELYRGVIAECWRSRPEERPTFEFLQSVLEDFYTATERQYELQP

[4] = biological target: T2, Tyrosine-protein kinase ZAP-70 (Homo sapiens) (UniProt P43403); assay: Inhibition of human full length recombinant ZAP70 at 50 nM by radiometric scintillation counting analysis relative to control
T2 sequence (whole entry): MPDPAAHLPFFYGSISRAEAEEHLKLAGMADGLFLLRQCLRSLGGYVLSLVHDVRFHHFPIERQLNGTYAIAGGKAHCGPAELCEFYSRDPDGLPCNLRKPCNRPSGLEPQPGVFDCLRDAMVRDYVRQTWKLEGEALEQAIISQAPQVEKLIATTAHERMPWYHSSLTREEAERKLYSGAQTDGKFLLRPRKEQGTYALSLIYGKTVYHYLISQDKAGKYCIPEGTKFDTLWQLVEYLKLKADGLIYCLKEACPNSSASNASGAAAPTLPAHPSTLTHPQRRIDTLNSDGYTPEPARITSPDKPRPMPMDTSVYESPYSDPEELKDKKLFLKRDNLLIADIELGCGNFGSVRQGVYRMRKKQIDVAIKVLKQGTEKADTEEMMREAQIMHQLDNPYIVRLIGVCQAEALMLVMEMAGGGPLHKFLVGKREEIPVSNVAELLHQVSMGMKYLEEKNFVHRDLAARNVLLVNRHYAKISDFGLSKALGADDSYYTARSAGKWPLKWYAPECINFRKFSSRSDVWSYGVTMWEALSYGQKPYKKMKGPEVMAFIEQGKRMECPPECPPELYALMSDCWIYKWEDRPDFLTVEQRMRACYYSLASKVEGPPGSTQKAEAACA

[5] = biological target: T3, Inhibitor of nuclear factor kappa-B kinase subunit alpha (Homo sapiens) (UniProt O15111); assay: Inhibition of human full length recombinant IKKalpha at 500 nM by radiometric scintillation counting analysis relative to control
T3 sequence (whole entry): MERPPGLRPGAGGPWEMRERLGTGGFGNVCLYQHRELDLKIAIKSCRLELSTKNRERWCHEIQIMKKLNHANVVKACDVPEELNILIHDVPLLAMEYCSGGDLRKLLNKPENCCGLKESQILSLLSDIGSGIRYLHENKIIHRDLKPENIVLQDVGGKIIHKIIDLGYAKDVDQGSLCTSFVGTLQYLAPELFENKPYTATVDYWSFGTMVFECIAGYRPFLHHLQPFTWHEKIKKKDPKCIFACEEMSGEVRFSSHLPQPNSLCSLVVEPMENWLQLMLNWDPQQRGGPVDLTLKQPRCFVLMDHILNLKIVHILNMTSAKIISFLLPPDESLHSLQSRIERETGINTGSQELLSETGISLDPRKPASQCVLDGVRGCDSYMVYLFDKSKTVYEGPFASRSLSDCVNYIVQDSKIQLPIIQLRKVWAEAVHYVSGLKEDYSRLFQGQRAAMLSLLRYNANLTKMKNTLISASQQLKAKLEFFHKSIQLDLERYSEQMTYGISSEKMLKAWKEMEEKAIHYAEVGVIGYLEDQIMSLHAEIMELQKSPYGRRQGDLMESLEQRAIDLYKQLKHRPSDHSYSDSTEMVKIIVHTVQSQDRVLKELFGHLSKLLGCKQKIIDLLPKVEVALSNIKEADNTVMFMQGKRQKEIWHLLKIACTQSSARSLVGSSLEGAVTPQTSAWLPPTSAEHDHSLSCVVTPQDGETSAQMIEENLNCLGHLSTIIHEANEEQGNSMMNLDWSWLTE

[6] = biological target: Tyrosine-protein kinase Srms (Homo sapiens, UniProt Q9H3Y6); assay: Inhibition of human SRMS at 500 nM by radiometric scintillation counting analysis relative to control
Tyrosine-protein kinase Srms, sequence (Q9H3Y6 whole entry): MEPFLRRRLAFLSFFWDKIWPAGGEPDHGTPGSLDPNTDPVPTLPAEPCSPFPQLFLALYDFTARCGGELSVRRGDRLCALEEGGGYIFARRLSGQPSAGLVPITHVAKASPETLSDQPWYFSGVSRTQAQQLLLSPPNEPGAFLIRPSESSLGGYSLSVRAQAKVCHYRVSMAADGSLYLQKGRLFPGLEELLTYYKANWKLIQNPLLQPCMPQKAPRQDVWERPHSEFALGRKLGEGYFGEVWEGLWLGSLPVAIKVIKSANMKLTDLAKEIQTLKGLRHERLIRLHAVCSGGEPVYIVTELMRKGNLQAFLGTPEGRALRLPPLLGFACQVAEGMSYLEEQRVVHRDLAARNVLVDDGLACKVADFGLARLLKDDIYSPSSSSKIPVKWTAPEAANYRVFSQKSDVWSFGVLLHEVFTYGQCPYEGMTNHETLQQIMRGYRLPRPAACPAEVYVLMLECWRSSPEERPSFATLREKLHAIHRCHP

[7] = biological target: Macrophage colony-stimulating factor 1 receptor (Homo sapiens, UniProt P07333); assay: Inhibition of human recombinant CSF1R using ATP/Ulight-TK peptide at 5 nM incubated for 15 mins relative to control
Macrophage colony-stimulating factor 1 receptor, sequence (P07333 whole entry): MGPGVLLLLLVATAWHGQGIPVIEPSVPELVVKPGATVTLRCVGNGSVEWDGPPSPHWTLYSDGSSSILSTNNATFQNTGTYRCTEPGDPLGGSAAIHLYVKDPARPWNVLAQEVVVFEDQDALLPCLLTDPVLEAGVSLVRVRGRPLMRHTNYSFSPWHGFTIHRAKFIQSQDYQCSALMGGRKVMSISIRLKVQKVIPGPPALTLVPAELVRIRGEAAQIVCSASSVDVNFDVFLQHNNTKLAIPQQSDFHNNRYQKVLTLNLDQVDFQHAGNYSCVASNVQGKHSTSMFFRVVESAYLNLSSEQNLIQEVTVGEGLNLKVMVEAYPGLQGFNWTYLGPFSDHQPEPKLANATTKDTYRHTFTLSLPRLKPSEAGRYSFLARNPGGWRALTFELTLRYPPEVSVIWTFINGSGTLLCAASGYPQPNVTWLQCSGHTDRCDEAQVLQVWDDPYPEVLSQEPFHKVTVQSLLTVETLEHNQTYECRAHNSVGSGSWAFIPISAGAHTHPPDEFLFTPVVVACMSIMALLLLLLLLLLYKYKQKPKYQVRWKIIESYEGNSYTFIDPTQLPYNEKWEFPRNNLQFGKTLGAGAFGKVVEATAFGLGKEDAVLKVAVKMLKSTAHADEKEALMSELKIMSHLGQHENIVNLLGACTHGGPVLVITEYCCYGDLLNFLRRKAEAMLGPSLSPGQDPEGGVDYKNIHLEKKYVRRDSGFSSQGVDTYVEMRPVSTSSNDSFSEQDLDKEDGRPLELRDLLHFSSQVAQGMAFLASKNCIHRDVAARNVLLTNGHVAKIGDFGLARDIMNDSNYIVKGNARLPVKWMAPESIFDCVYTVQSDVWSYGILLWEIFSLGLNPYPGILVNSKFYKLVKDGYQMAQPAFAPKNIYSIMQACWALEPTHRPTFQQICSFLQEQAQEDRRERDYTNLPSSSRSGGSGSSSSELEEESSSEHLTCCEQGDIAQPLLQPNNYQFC

[8] = biological target: Tyrosine-protein kinase Fyn (Homo sapiens, UniProt P06241); assay: Inhibition of human recombinant Fyn (218 to end) at 50 nM incubated for 15 mins relative to control
Tyrosine-protein kinase Fyn, sequence (P06241 2-537 limits assumed): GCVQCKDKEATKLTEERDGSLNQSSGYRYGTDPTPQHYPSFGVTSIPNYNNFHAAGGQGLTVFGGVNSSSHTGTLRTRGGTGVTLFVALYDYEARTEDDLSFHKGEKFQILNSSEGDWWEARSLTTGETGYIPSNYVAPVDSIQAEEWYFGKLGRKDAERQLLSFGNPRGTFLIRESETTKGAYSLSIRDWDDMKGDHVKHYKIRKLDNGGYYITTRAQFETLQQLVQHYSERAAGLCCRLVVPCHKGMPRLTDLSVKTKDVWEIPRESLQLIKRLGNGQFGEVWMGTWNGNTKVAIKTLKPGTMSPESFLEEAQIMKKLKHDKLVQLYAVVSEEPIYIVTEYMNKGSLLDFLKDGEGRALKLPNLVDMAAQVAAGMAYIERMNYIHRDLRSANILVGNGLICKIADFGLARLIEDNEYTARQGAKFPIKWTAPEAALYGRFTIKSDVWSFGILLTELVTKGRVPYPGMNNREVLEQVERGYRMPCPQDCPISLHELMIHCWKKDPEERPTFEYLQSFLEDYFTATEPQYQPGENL

Tyrosine-protein kinase Fgr, sequence (P09769 2-529 limits assumed): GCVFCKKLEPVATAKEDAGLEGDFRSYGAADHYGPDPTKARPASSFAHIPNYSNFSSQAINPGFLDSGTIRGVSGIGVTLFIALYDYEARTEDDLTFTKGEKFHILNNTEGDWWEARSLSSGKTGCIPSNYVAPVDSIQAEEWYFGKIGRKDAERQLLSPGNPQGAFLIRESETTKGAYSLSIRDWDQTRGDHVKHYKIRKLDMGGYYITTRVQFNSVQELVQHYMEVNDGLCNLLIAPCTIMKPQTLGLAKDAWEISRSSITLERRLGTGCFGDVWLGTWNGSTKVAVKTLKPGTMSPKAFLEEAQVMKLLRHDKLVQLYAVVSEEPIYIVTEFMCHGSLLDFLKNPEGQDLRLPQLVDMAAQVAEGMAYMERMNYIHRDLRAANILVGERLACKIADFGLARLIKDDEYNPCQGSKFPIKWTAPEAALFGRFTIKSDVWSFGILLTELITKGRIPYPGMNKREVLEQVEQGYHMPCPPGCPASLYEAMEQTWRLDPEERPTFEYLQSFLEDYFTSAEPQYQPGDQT

Row | SMILES | inhibition [1] | inhibition [2] | inhibition [3] | inhibition [4] | inhibition [5] | inhibition [6] | inhibition [7] | inhibition [8]
1 | Cc1ccc(C(=O)Nc2ccc(Cl)cc2Cl)cc1C#Cc1cc(-c2cnn(C)c2)cnc1N | 4% | 21% | 7% | 2% | 2% | 13% | 34% | 43%
2 | Cc1ccc(C(=O)Nc2cc(C(F)(F)F)cc(C(F)(F)F)c2)cc1C#Cc1cc(-c2cnn(C)c2)cnc1N | 27% | 16% | 22% | 12% | 12% | 86% | 25% | 55%
3 | Cc1ccc(C(=O)Nc2ccc(OC(F)(F)F)cc2)cc1C#Cc1cc(-c2cnn(C)c2)cnc1N | 9% | -6% | 21% | 6% | 0% | 54% | 39% | 81%
